Laboratory results reported in patent publication US9067943B2, “[1,2,3]triazolo[4,5-D]pyrimidine derivatives” (priority 2011, dated 2015).

Key:
human CB1 receptors = biological target: T1, human CB1 receptors (Homo sapiens, UniProt P21554); test: cAMP assay; format: cell-based
T1 construct: expressed in transfected cells; host or cells: CHO cells
Procedure: (§1) CHO cells expressing human CB1 or CB2 receptors are seeded 17-24 hours prior to the experiment 50.000 cells per well in a black 96 well plate with flat clear bottom (Corning Costar #3904) in DMEM (Invitrogen No. 31331), 1×HT supplement, with 10% fetal calf serum and incubated at 5% CO2 and 37° C. in a humidified incubator. The growth medium was exchanged with Krebs Ringer Bicarbonate buffer with 1 mM IBMX and incubated at 30° C. for 30 min. Compounds were added to a final assay volume of 100 μl and incubated for 30 min at 30° C. Using the cAMP-Nano-TRF detection kit the assay (Roche Diagnostics) was stopped by the addition of 50 μl lysis reagent (Tris, NaCl, 1.5% Triton X100, 2.5% NP40, 10% NaN3) and 50 μl detection solutions (20 μM mAb Alexa700-cAMP 1:1, and 48 μM Ruthenium-2-AHA-cAMP) and shaken for 2 h at room temperature. The time-resolved energy transfer is measured by a TRF reader (Evotec Technologies GmbH), equipped with a ND:YAG laser as excitation source. The plate is measured twice with the excitation at 355 nm and at the emission with a delay of 100 ns and a gate of 100 ns, total exposure time 10 s at 730 (bandwidth 30 nm) or 645 nm (bandwidth 75 nm), respectively. The FRET signal is calculated as follows: FRET=T730-Alexa730-P(T645-B645) with P=Ru730-B730/Ru645-B645, where T730 is the test well measured at 730 nM, T645 is the test well measured at 645 nm, B730 and B645 are the buffer controls at 730 nm and 645 nm, respectively. cAMP content is determined from the function of a standard curve spanning from 10 μM to 0.1 nM cAMP.
(§2) EC50 values were determined using Activity Base analysis (ID Business Solution, Limited). The EC50 values for a wide range of cannabinoid agonists generated from this assay were in agreement with the values published in the scientific literature.

human CB2 receptors = biological target: T2, human CB2 receptors (Homo sapiens, UniProt P34972); test: cAMP assay; format: cell-based
T2 construct: expressed in transfected cells; host or cells: CHO cells
Procedure: as §1, §2

T2 sequence (P34972 whole entry): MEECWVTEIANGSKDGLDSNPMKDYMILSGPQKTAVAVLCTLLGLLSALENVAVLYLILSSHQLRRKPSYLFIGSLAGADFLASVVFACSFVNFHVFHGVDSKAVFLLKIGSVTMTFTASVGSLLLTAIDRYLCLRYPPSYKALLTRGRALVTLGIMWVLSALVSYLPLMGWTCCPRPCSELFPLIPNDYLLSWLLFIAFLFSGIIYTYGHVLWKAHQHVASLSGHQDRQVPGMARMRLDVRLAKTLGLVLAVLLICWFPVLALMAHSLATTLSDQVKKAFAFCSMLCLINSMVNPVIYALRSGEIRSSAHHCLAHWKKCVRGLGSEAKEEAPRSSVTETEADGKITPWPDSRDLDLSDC
T1 sequence (P21554 whole entry): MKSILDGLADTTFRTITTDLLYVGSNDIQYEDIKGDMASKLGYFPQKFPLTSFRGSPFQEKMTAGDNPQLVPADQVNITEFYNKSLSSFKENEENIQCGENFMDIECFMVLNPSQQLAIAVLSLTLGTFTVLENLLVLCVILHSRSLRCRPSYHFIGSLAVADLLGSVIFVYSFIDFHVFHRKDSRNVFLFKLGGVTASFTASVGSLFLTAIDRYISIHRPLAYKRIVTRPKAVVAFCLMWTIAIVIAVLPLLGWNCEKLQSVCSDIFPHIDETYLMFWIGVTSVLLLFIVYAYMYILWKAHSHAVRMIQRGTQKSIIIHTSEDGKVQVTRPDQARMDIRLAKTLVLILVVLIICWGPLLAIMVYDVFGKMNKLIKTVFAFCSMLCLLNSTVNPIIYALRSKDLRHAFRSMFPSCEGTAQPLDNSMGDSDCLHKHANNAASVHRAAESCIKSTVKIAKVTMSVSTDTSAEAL

Structure (SMILES) | EC50 (human CB1 receptors) [nM] | EC50 (human CB2 receptors) [nM]
CC(C)(C)c1nc(N2CCC(F)(F)C2)c2nn(Cc3cccc(C(F)(F)F)c3Cl)nc2n1 [Example 56, 5-tert-Butyl-2-(2-chloro-3-trifluoromethyl-benzyl)-7-(3,3-difluoro-pyrrolidin-1-yl)-2H-[1,2,3]triazolo[4,5-d]pyrimidine] | > 10000 | 12.6
COc1ccc(F)c(Cn2nc3nc(C(C)(C)C)nc(N4CCC(F)(F)C4)c3n2)c1Cl [Example 57, 5-tert-Butyl-2-(2-chloro-6-fluoro-3-methoxy-benzyl)-7-(3,3-difluoro-pyrrolidin-1-yl)-2H-[1,2,3]triazolo[4,5-d]pyrimidine] | > 10000 | 3.6
CC(C)(C)c1nc(N2CCC(F)(F)C2)c2nn(CCc3cccnc3)nc2n1 [Example 58, 5-tert-Butyl-7-(3,3-difluoro-pyrrolidin-1-yl)-2-(2-pyridin-3-yl-ethyl)-2H-[1,2,3]triazolo[4,5-d]pyrimidine] | > 10000 | 4.3
CC(C)(C)c1nc(N2CCC(F)(F)C2)c2nn(CCc3ccncc3)nc2n1 [Example 59, 5-tert-Butyl-7-(3,3-difluoro-pyrrolidin-1-yl)-2-(2-pyridin-4-yl-ethyl)-2H-[1,2,3]triazolo[4,5-d]pyrimidine] | > 10000 | 3.5
CC(C)(C)c1nc(N2CCC(F)(F)C2)c2nn(Cc3c(C(F)(F)F)ccc(Cl)c3Cl)nc2n1 [Example 60, 5-tert-Butyl-2-(2,3-dichloro-6-trifluoromethyl-benzyl)-7-(3,3-difluoro-pyrrolidin-1-yl)-2H-[1,2,3]triazolo[4,5-d]pyrimidine] | > 10000 | 12.7
CC(C)(C)c1nc(N2CCC(F)(F)C2)c2nn(Cc3nccc(Cl)c3Cl)nc2n1 [Example 61, 5-tert-Butyl-2-(3,4-dichloro-pyridin-2-ylmethyl)-7-(3,3-difluoro-pyrrolidin-1-yl)-2H-[1,2,3]triazolo[4,5-d]pyrimidine] | > 10000 | 2.6
CC(C)(C)c1nc(N2CCC(F)(F)C2)c2nn(C3CS(=O)(=O)C3)nc2n1 [Example 62, 5-tert-Butyl-7-(3,3-difluoro-pyrrolidin-1-yl)-2-(1,1-dioxo-1λ6-thietan-3-yl)-2H-[1,2,3]triazolo[4,5-d]pyrimidine] | > 10000 | 5.8
CC(C)(C)c1nc(N2CCC(F)(F)C2)c2nn(C3CCS(=O)(=O)C3)nc2n1 (stereo not drawn) [Example 63, 5-tert-Butyl-7-(3,3-difluoro-pyrrolidin-1-yl)-2-(1,1-dioxo-tetrahydro-1λ6-thiophen-3-yl)-2H-[1,2,3]triazolo[4,5-d]pyrimidine] | > 10000 | 4
CC(C)(C)c1nc(N2CCC(F)(F)C2)c2nn(CC(=O)c3ccccn3)nc2n1 [Example 64, 2-[5-tert-Butyl-7-(3,3-difluoro-pyrrolidin-1-yl)-[1,2,3]triazolo[4,5-d]pyrimidin-2-yl]-1-pyridin-2-yl-ethanone] | > 10000 | 2.4
Cc1nnc(Cn2nc3nc(C(C)(C)C)nc(N4CCC(F)(F)C4)c3n2)o1 [Example 65, 5-tert-Butyl-7-(3,3-difluoro-pyrrolidin-1-yl)-2-(5-methyl-[1,3,4]oxadiazol-2-ylmethyl)-2H-[1,2,3]triazolo[4,5-d]pyrimidine] | > 10000 | 18.6
CC(C)(C)c1nc(N2CCC(F)(F)C2)c2nn(Cc3ccncc3Cl)nc2n1 [Example 66, 5-tert-Butyl-2-(3-chloro-pyridin-4-ylmethyl)-7-(3,3-difluoro-pyrrolidin-1-yl)-2H-[1,2,3]triazolo[4,5-d]pyrimidine] | 234 | 0.4
Cc1nc(Cn2nc3nc(C(C)(C)C)nc(N4CCC(F)(F)C4)c3n2)no1 [Example 67, 5-tert-Butyl-7-(3,3-difluoro-pyrrolidin-1-yl)-2-(5-methyl-[1,2,4]oxadiazol-3-ylmethyl)-2H-[1,2,3]triazolo[4,5-d]pyrimidine] | 1630 | 1.3
